Data as given in patent publication US20070048325A1, “Combination therapies for inhibiting integrin-extracellular matrix interactions” (priority 2005, published 2007).
Each block holds one molecule with its values, some of them ahead of it. Where no end group is shown, it is not given here.

Columns and labels:
[1] = biological target: integrin αvβ3 on M21 human melanoma cells (human (on human melanoma M21 cells)) (UniProt P06756); assay: cell-based or functional assay
[2] = system: denatured collagen type-IV; details: substantially greater defined as at least 1.5-fold; cited from earlier work
M21 cells = assay: M21 cell adhesion to native collagen type-IV; assay type: cell-based, human; details: CLK-peptide 100 μg/ml; mAb HUIV26 100 μg/ml; data not shown
Description: FIG. 25 Effect of mAb HUIV26 in Combination with CLK-Peptide on Adhesion of M21 Cells to Denatured Collagen Type IV. Microtiter wells were coated with either native or denatured collagen type-IV. M21 cells were allowed to bind to the coated substrates in the presence of CLK-peptide, mAb HUIV26, or both.
The effects of CLK-peptide, mAb HUIV26, and the combination of both on tumor cell adhesion were examined in vitro. Non-tissue culture treated 48-well microtiter plates were coated overnight at 4° C. with either native or denatured collagen type-IV (5 μg/ml). The plates were then blocked with 1% BSA in PBS for 1 hour at 37° C. Human melanoma (M21) cells at 10^5 cells/well in adhesion buffer were allowed to attach to the coated wells in the presence of either CLK-peptide (100 μg/ml), or mAb HUIV26 (100 μg/ml, […]), or both together (CLK-peptide 25 μg/ml, mAb HUIV26 100 μg/ml). The cells were washed 2× with PBS, stained with crystal violet and destained with 10% acetic acid. Cell adhesion was quantified by measuring the O.D. of eluted dye at 600 nm. Data bars represent the mean O.D.±standard deviation from triplicate wells.

[3] = system: denatured collagen type-IV; assay: Competition ELISA of CLK-peptide and mAb HUIV26; assay type: binding
Description: FIG. 26 Binding of CLK-Peptide and Mab HUIV26 to Denatured Collagen Type IV. To examine the epitope bound by CLK and HUIV26, competition ELISAs were carried out. Microtiter wells were coated with denatured collagen type-IV (10 μg/ml), and mAb HUIV26 was allowed to bind the denatured collagen in the presence or absence of CLK-peptide.
To characterize the epitope bound by CLK and HUIV26, competition ELISAs were carried out. Microtiter wells were coated with denatured collagen type-IV (1 μg/ml) overnight at 4° C., and the plates were blocked with 1% BSA for 1 hour at 37° C. Monoclonal Ab HUIV26 was added at 1 μg/ml and allowed to bind the denatured collagen in the presence or absence of 100 μg/ml of CLK-peptide for 2 hours at 37° C. Goat-anti-mouse antibody was added at 1:3000 and incubation was allowed for 1 hour at 37° C. A color solution, then a stopping solution of 4N sulfuric acid, were added and binding was quantified by measuring the O.D. 490 nm. […] Similar results were obtained over a wide range of peptide and antibody concentrations (1 to 100 μg/ml; data not shown).

[4] = system: denatured collagen type-IV; assay: ^99Tc-labeled CLK-peptide binding, gamma counter; details: for inhibition of ^99Tc-CLK-peptide binding to denatured collagen type-IV: collagen coated at 10 μg/ml
Description: FIG. 28 Inhibition of Binding of ^99Tc-Labeled CLK-Peptide to Denatured Collagen Type-IV by mAb HUI77. Denatured collagen type-IV (10 μg/ml) was coated on microtiter wells and binding of ^99Tc-labeled CLK-peptide in the presence or absence of unlabeled CLK-peptide or mAb HUI77 was measured. […] These findings provide further evidence that the CLK-peptide binds to a similar, if not identical, epitope recognized by the mAb HUI77.
In addition, denatured collagen type-IV (10 μg/ml) was coated on microtiter wells and binding of ^99Tc-labeled CLK-Peptide in the presence or absence of unlabeled CLK-peptide or mAb HUI77 was measured using a gamma counter. […] These findings provide further evidence that the CLK-peptide binds to a similar if not identical epitope recognized by Mab HUI77.

[5] = system: denatured collagen type-IV; assay: Solid phase ELISA of HRP-labeled CLK-peptide binding; details: collagen coated at 10 μg/ml; ELISA 490 nm
Description: FIG. 27 Inhibition of Binding of Labeled CLK-Peptide to Denatured Collagen Type-IV by mAb HUI77. To examine the binding specificity of the synthetic CLK-peptide, the peptide was labeled and solid phase ELISAs were performed.
To examine the binding specificity of CLK-Peptide, the peptide was labeled and solid phase ELISAs were performed. Denatured collagen type-IV (10 μg/ml) was coated on microtiter wells and binding of either HRP-labeled CLK-Peptide or mAbs (mAbs HU177 or HUIV26) was measured by ELISA at a wavelength of 490 nm.

denatured collagen = details: cited from earlier work

Sequence of UniProt P06756 (P06756 31-1048, chain 1 of 2): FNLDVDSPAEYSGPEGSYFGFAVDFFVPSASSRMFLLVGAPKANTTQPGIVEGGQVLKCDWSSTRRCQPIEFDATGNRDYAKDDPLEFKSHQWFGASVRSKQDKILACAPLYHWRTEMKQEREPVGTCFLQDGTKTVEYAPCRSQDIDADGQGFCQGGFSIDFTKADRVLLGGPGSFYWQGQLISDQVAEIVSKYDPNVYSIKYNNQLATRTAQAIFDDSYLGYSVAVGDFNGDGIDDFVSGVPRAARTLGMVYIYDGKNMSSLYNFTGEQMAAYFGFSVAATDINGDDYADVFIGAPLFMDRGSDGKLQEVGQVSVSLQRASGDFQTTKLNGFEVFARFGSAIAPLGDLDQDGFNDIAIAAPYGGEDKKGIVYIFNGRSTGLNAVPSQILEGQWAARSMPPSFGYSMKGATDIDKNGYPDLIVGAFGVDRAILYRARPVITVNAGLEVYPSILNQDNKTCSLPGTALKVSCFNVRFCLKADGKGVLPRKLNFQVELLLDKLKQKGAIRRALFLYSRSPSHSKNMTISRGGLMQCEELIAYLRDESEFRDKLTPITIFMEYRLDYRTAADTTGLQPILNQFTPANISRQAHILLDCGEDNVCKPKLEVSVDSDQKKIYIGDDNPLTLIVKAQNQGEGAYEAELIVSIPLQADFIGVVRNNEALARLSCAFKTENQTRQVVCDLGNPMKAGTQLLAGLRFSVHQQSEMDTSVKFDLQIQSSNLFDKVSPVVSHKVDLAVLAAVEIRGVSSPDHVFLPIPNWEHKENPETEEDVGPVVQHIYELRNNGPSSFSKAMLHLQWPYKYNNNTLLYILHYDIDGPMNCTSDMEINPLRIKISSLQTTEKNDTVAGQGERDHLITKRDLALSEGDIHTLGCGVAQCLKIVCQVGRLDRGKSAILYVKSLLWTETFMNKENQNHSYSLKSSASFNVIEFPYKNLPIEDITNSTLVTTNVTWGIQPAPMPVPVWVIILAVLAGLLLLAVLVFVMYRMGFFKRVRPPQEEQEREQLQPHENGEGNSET
Sequence of UniProt P06756 (P05106 27-788, chain 2 of 2, further chain): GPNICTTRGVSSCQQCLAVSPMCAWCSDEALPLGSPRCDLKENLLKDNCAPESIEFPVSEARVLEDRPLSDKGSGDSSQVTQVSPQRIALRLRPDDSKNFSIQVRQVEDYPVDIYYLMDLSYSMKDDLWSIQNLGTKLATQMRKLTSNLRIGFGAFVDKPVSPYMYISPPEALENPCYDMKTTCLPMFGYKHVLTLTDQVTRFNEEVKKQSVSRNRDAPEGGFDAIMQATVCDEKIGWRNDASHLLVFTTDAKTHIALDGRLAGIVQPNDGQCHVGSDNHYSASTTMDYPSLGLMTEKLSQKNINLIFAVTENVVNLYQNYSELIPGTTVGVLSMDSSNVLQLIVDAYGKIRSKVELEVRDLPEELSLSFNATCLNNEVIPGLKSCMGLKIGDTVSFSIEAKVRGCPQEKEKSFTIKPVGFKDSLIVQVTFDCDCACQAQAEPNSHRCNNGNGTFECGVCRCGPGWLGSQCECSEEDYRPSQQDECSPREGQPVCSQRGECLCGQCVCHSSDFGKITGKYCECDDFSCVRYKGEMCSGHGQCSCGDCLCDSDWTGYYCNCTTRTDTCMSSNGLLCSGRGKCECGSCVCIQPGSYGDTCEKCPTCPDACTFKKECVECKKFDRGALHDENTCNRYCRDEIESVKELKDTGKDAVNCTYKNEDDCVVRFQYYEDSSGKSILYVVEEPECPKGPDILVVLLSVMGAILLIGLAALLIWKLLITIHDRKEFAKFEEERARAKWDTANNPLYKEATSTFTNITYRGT

Molecule: NH2-S-L-K-Q-N-G-G-N—F—S-L-C—COOH (H-SLKQNGGNFSLC-OH) [SLK-peptide]
binding affinity to denatured collagen type-IV compared to native collagen type-IV [2]: substantially greater

Molecule: ^99Tc-CLK-peptide: CLK-peptide labeled with 99Tc (CLKQNGGNFSLG; also: labeled with 99Tc)
binding of ^99Tc-CLK-peptide to denatured collagen type-IV ([4]; 10 μg/ml, 50 μl/well): specifically binds

B1: mAb HUIV26: monoclonal antibody to denatured collagen; Hybridoma HUIV26 (PTA-6563); SEQ ID NO: 15 and 22 (antibody, listed as Mus musculus, V domains shown)
VH: EVKLLESGGGLVQPGGSLKLSCAASGFDFSRYWMSWVRQAPGKGLEWIGEINPDSSTINYTPSLKDKFIISRDNAKNTLYLQMSKVRSEDTALYYCARPVDGYYDAMDYWGQGTSVTVSS
VL: DIVMTQSPSLLSVSAGEKVTMSCKSSQSLLNSGNQKNYLAWYQQKPGQPPKLLIYGASTRESGVPDRFTGSGSGTDFTLIISSVQAEDLAVYYCQNDHSVPYTFGGGTKLEI
inhibition of HRP-labeled CLK-peptide binding to denatured collagen type-IV [5]: not
affinity to the native form of the collagen compared to denatured collagen (denatured collagen): substantially reduced affinity
effect on M21 cell adhesion to native collagen type-IV (M21 cells): neither had any effect
binding to denatured collagen type-IV ([3]; ELISA, HUIV26 1 μg/ml): readily bound
blocking of CLK-peptide binding to denatured collagen type-IV ([3]; FIG. 26B): did not block

The next lines start with results.

relative level of IGFBP-4 RNA (real time PCR) in M21 cells on denatured collagen type-IV [1]: 8 fold
relative level of TSP-1 (real time PCR) in M21 cells on plates coated with anti-integrin Mabs [1]: > 50%
relative level of TSP-1 RNA (real time PCR) in M21 cells on denatured collagen type-IV [1]: 8 fold
Molecule: Mab LM609 (antibody)

blocking of mAb HUIV26 binding to denatured collagen type-IV ([3]; HUIV26 1 μg/ml, CLK-peptide 100 μg/ml): did not block
inhibition of ^99Tc-CLK-peptide binding to denatured collagen type-IV [4]: dose dependent inhibition
Molecule: NH2-C-L-K-Q-N-G-G-N—F—S-L-G-COOH (H-CLKQNGGNFSLG-OH) [CLK-peptide]
binding affinity to denatured collagen type-IV compared to native collagen type-IV [2]: substantially greater
effect on M21 cell adhesion to native collagen type-IV (M21 cells): neither had any effect

inhibition of HRP-labeled CLK-peptide binding to denatured collagen type-IV [5]: specifically inhibited
inhibition of ^99Tc-CLK-peptide binding to denatured collagen type-IV [4]: inhibited
Molecule: mAb HUI77: mouse monoclonal antibody to denatured collagen; hybridoma PTA-6551; SEQ ID NO: 1 and 8
affinity to the native form of the collagen compared to denatured collagen (denatured collagen): substantially reduced affinity
